≈ marks a conversion by molar mass, not a printed value. Calls of active or inactive are those of the source. No cut-off for these calls is given here.
Assays:
Cell membrane [1] = assay: Induction of membrane depolarization in methicillin-resistant Staphylococcus aureus 15 assessed as increase in fluorescence intensity at 32 ug/ml by DiSC3-5 dye based fluorescence method; format: subcellular; conditions: dose 32.0 µg/ml
Cell membrane [2] = assay: Disruption of membrane integrity in methicillin-resistant Staphylococcus aureus 15 assessed as increase in fluorescence intensity at 32 ug/ml measured immediately by Sytox green based fluorescence method; format: subcellular; conditions: dose 32.0 µg/ml
Staphylococcus aureus [3] = assay: Inhibition of biofilm formation in methicillin-resistant Staphylococcus aureus 15 assessed as destruction of formed biofilm at 128 ug/ml incubated for 24 hrs by crystal violet staining based analysis relative to control; format: functional
Micrococcus luteus = assay: Antibacterial activity against Micrococcus luteus assessed as inhibition of bacterial growth incubated for 16 to 20 hrs by CLSI based microdilution method; format: functional; conditions: time 16-20 hrs
Staphylococcus aureus [4] = assay: Bactericidal activity against methicillin-resistant Staphylococcus aureus 15 at 4 to 8 times MIC measured at 24 hrs by time kill assay; format: functional, organism-based
Enterococcus faecalis = assay: Antibacterial activity against Enterococcus faecalis ATCC 29212 assessed as inhibition of bacterial growth incubated for 16 to 20 hrs by CLSI based microdilution method; format: functional; conditions: time 16-20 hrs
Staphylococcus aureus [5] = assay: Inhibition of biofilm formation in Staphylococcus aureus ATCC 29213 at 64 ug/ml incubated for 24 hrs by crystalline violet staining based analysis; format: functional; conditions: dose 64.0 µg/ml
Staphylococcus aureus [6] = assay: Inhibition of biofilm formation in methicillin-resistant Staphylococcus aureus 15 at 64 ug/ml incubated for 24 hrs by crystalline violet staining based analysis; format: functional; conditions: dose 64.0 µg/ml
Staphylococcus aureus [7] = assay: Induction of drug resistance in Staphylococcus aureus ATCC 29213 assessed as increase in MIC at 0.5 times MIC measured after 2 days by CLSI based microdilution method; format: functional, organism-based; conditions: time 2.0 day
Salmonella enterica [8] = assay: Antibacterial activity against Salmonella enterica H9812 assessed as inhibition of bacterial growth incubated for 16 to 20 hrs by CLSI based microdilution method; format: functional; conditions: time 16-20 hrs
[9] = Hemolytic activity in sheep RBC incubated for 1 hr by absorbance based analysis; format: toxicity, cell-based, Ovis aries, Erythrocyte; conditions: sheep red blood cells
[10] = Selectivity index, ratio of HC50 for hemolytic activity in sheep RBC to MIC for antibacterial activity against Staphylococcus aureus ATCC 29213; format: toxicity; conditions: sheep red blood cells
Escherichia coli = assay: Antibacterial activity against Escherichia coli ATCC 25922 assessed as inhibition of bacterial growth incubated for 16 to 20 hrs by CLSI based microdilution method; format: functional; conditions: time 16-20 hrs
Salmonella enterica [11] = assay: Antibacterial activity against Salmonella enterica 8389 assessed as inhibition of bacterial growth incubated for 16 to 20 hrs by CLSI based microdilution method; format: functional; conditions: time 16-20 hrs
Staphylococcus aureus [12] = assay: Antibacterial activity against Staphylococcus aureus ATCC 29213 assessed as inhibition of bacterial growth incubated for 16 to 20 hrs by CLSI based microdilution method; format: functional; conditions: time 16-20 hrs

SMILES	Activity (Cell membrane [1])	Activity (Cell membrane [2])	inhibition at 128 µg/mL (Staphylococcus aureus [3]) [%]	MIC (Micrococcus luteus) [µg/mL]	Activity (Staphylococcus aureus [4])	MIC (Enterococcus faecalis) [µg/mL]	inhibition (Staphylococcus aureus [5])	inhibition (Staphylococcus aureus [6])	Activity (Staphylococcus aureus [7])	MIC (Salmonella enterica [8]) [µg/mL]	HC50 at 1 h [9] [µg/mL]	selectivity ratio [10]	MIC (Escherichia coli) [µg/mL]	MIC (Salmonella enterica [11]) [µg/mL]	MIC (Staphylococcus aureus [12]) [µg/mL]
CC[C@H](C)[C@H](NC(=O)CN)C(=O)NCC(=O)N[C@@H](C)C(=O)N[C@H](C(=O)N[C@@H](CC(C)C)C(=O)N[C@@H](CCCCN)C(=O)N[C@H](C(=O)N[C@@H](CC(C)C)C(=O)N[C@H](C(=O)N[C@H](C(=O)NCC(=O)N[C@@H](CC(C)C)C(=O)N1CCC[C@H]1C(=O)N[C@@H](C)C(=O)N[C@@H](CC(C)C)C(=O)N[C@H](C(=O)N[C@@H](CO)C(=O)N[C@@H](Cc1c[nH]c2ccccc12)C(=O)N[C@H](C(=O)N[C@@H](CCCCN)C(=O)N[C@@H](CCCNC(=N)N)C(=O)N[C@@H](CCCCN)C(=O)N[C@@H](CCCNC(=N)N)C(=O)N[C@@H](CCC(N)=O)C(=O)N[C@@H](CCC(N)=O)C(N)=O)[C@@H](C)CC)[C@@H](C)CC)[C@@H](C)O)[C@@H](C)O)C(C)C)C(C)C	Active	Active	–	–	–	–	–	–	–	–	–	–	–	–	–
CN[C@H](CC(C)C)C(=O)N[C@H]1C(=O)N[C@@H](CC(N)=O)C(=O)N[C@H]2C(=O)N[C@H]3C(=O)N[C@H](C(=O)N[C@H](C(=O)O)c4cc(O)cc(O)c4-c4cc3ccc4O)[C@H](O)c3ccc(c(Cl)c3)Oc3cc2cc(c3O[C@@H]2O[C@H](CO)[C@@H](O)[C@H](O)[C@H]2O[C@H]2C[C@](C)(N)[C@H](O)[C@H](C)O2)Oc2ccc(cc2Cl)[C@H]1O [VANCOMYCIN]	–	–	60	2 (≈ 1.38 µM)	inactive	1 (≈ 0.69 µM)	inactive	inactive	–	–	–	–	–	–	–
CCn1cc(C(=O)O)c(=O)c2cc(F)c(N3CCNCC3)cc21	–	–	–	–	–	–	–	–	Active	–	–	–	–	–	–
C=CCc1cccc(Oc2ccc(C(=O)CC)cc2)c1OCC[N+](C)(C)CC(=O)N1CCOCC1.[Br-]	–	–	–	16	–	64	–	–	–	64	> 1280	> 20	128	64	64
Br.C=CCc1cccc(Oc2ccc(C(=O)CC)cc2)c1OCCCCSC(=N)N	–	–	–	16	–	32	–	–	–	128	931	58.2	32	64	16
C=CCc1cccc(Oc2ccc(C(=O)CC)cc2)c1OCCCC[N+](C)(C)CC(=O)N(CC)CC.[Br-]	–	–	–	64	–	32	–	–	–	> 128	> 1280	> 40	64	> 128	32

Reference: ChEMBL document CHEMBL5236634, “Membrane-Targeting Neolignan-Antimicrobial Peptide Mimic Conjugates to Combat Methicillin-Resistant Staphylococcus aureus (MRSA) Infections” (J Med Chem, 2022)
